Biological target: DNA-(apurinic or apyrimidinic site) endonuclease (Homo sapiens, UniProt P27695)
Test: APE1 Inhibition Assay
Settings: pH 7.5; 30 °C
Method: To determine the extent of abasic residue cleavage by APE1, recombinant APE1 was preincubated with the potential inhibitors in reaction buffer. Then, the 5-end 32P-labeled oligonucleotide substrate was added. The conversion of incision product was quantitated using PhosphorImager / ImageQuant 5.2 system. The IC50 values were determined by plotting the logarithm of drug concentration against percent inhibition of enzymatic activity. The optimum concentration of APE1 protein in the assay is the concentration at which there is complete conversion of the abasic-site containing oligonucleotide substrate to its cleaved product without subsequent exonuclease activity.

DNA-(apurinic or apyrimidinic site) endonuclease, sequence (P27695 whole entry): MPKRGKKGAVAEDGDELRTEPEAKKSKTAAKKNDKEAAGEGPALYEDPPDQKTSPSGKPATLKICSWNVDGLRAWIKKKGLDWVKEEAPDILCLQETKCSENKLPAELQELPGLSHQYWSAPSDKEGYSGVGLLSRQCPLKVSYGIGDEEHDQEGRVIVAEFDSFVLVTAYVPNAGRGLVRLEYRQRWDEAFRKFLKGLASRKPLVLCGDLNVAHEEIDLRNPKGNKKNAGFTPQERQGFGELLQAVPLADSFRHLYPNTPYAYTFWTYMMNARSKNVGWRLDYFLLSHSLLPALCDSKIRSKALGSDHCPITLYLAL

O=C(O)c1ccc(Sc2ccc(S(=O)(=O)c3ccc(C(=O)O)c(C(=O)O)c3)cc2)cc1 [4-({4-[(4-carboxyphenyl)sulfanyl]benzene}sulfonyl)benzene-1,2-dicarboxylic acid]
IC50: 4 µM

— BindingDB's records for doi:10.1021/jm800739m (University of Southern California, 2009)
